“And” between values parts separate entries of the source, which are not always exact repeats. Equal values may be shown once.
Target: T1, NS3 protease (dengue virus type 4, UniProt A0A0K0TQ36)
T1 sequence (A0A0K0TQ36 whole entry): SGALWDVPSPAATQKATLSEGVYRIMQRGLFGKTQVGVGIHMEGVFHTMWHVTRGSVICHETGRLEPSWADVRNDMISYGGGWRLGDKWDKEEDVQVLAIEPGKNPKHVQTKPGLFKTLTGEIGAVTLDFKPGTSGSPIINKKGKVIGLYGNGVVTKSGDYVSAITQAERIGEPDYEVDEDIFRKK
Assay: Functional biochemical assay to identify treatments for viral infectious disease that targets Dengue virus type 4 NS2B-NS3 protease. Utilizing a direct enzyme activity measurement method, reading the fluorescence intensity is used to characterize the relative potency of inhibitors as IC50.
Design: species or system Philippines/H241/1956

Row | SMILES | IC50
1 | N#Cc1cc2c(cc1NC(=O)c1cc(F)cc3[nH]ncc13)CNC2 | 36.9 µM
2 | O=C(Nc1ccc2c(c1)CNC2)c1cc(Cl)cc2ccncc12 | > 99.5 µM
3 | O=C(Nc1cc2c(c(C3=CCOCC3)c1)CNC2)c1cc(F)cc2[nH]ncc12 | 29.9 µM
4 | O=C(Nc1ccc2c(c1)CNC2)c1cc(Cl)cc2[nH]ncc12 | > 99.5 µM
5 | O=C(Nc1ccc2c(c1)CNC2)c1cc(Cl)cc2cc[nH]c12 | > 99.5 µM
6 | O=C(Nc1ccc2c(c1)CNC2)c1cc(F)cc2[nH]c(-c3ccc(F)cc3)nc12 | 3.65 µM
7 | N#C[C@H](Nc1cccc(-c2nn[nH]n2)c1)c1cc(Cl)cc(NC(=O)OCc2ccccc2)c1 | 12.4 µM
8 | O=C(Nc1ccc2c(c1)CNC2)c1cc(Cl)cc2c1CCC2 | > 99.5 µM
9 | O=C(Nc1ccc2c(c1)CNC2)c1cc(Br)cc2[nH]c(-c3ccccc3)nc12 | 2.96 µM
10 | c1cc(C2CCN(Cc3c[nH]c4ccccc34)CC2)c2ccncc2c1 | > 99.5 µM
11 | Cc1[nH]c2ccccc2c1CN1CCC(c2c[nH]c3ncccc23)CC1 | > 99.5 µM
12 | O=C(NCCC1CC1)[C@H](Nc1ccc2c(c1)CNC2)c1cc(Cl)cc(C2CC2)c1 | > 99.5 µM
13 | O=C1Cc2c(cccc2C(=O)Nc2ccc3c(c2)CNC3)N1 | 15.1 µM
14 | NCc1cccc(-c2csc3cc(C(=O)Nc4ccc5c(c4)CNC5)ccc23)c1 | 43.7 µM
15 | Cn1cc2cc(Cl)cc(C(=O)Nc3ccc4c(c3)CNC4)c2n1 | > 99.5 µM
16 | CNC(=O)[C@H](Nc1cccc(CN)c1)c1cc(Cl)cc(NC(=O)OCc2ccccc2)c1 | > 99.5 µM
17 | CC(C)NC(=O)[C@H](Nc1ccc2c(c1)CNC2)c1cc(Cl)cc2[nH]c(-c3ccccc3)nc12 | 14.6 µM and 4.38 µM
18 | O=C(Nc1cc(Br)c2c(c1)CNC2)c1cc(F)cc2[nH]ncc12 | > 99.5 µM
19 | CNC(=O)[C@H](Nc1cc(Cl)cc(NC(=O)OCc2ccccc2)c1)c1cccc(-c2nn[nH]n2)c1 | 61.6 µM
20 | CC(C)CNC(=O)c1cc(Cl)ccc1NS(=O)(=O)c1ccc(Oc2ccccc2Cl)cc1 | 15 µM
21 | NCc1cccc(NC(=O)c2cc(Cl)cc(NC(=O)OCc3ccccc3)c2)c1 | 34.6 µM
22 | O=C(Nc1cc(Cl)cc([C@H](C#CCO)Nc2cccc(-c3nn[nH]n3)c2)c1)OCc1ccccc1 | 15.9 µM
23 | CCOCCNC(=O)[C@H](Nc1ccc2c(c1)CNC2)c1cc(Cl)cc2[nH]ncc12 | > 99.5 µM
24 | Cc1c(C(=O)Nc2cc([C@H]3CCOC3)ccn2)cc(C2CC2)n1C | > 99.5 µM
25 | NCCc1csc2cc(C(=O)Nc3cc([C@H]4CCOC4)ccn3)ccc12 | > 99.5 µM

Row | SMILES | IC50
26 | O=C(Nc1ccc2c(c1)CNCC2)c1cc(Cl)cc2[nH]ncc12 | > 99.5 µM
27 | O=C(Nc1ccc2c(c1)CNC2)c1cccc2c(C3CNC3)n[nH]c12 | 32.2 µM
28 | O=C(Nc1cc2c(cc1Br)CNC2)c1cc(F)cc2[nH]ncc12 | > 99.5 µM
29 | Cn1cc(CNC(=O)[C@H](Nc2ccc3c(c2)CNC3)c2cc(Cl)cc(C3CC3)c2)cn1 | > 99.5 µM
30 | N#Cc1ccc(-c2nc3c(C(=O)Nc4ccc5c(c4)CNC5)cc(F)cc3[nH]2)cc1 | 1.92 µM
31 | NCc1ccc(-c2csc3cc(C(=O)Nc4ccc5c(c4)CNC5)ccc23)cc1 | 53.2 µM
32 | NCc1csc2cc(C(=O)Nc3ccc4c(c3)CNC4)ccc12 | 11.8 µM
33 | O=C(Nc1ccc2c(c1)CNC2)c1cc(F)cc2[nH]c(-c3ccccc3)nc12 | 5.41 µM
34 | O=C(Nc1ccc2c(c1)CNC2)c1ccc2[nH]cc(C3CCNCC3)c2c1 | 36.7 µM
35 | O=C(Nc1ccc2c(c1)CNC2)c1cccc(-c2cnco2)c1 | 23.3 µM
36 | Cc1nc2c(C(=O)Nc3ccc4c(c3)CNC4)cc(Cl)cc2[nH]1 | 26.7 µM
37 | N#C[C@H](Nc1ccc2c(c1)CNC2)c1cc(Cl)cc(C2CC2)c1 | > 99.5 µM
38 | O=C(Nc1cc(Cl)cc(C(=O)Nc2cccc([C@H]3C[C@H]3C(=O)O)c2)c1)OCc1ccccc1 | 32.8 µM
39 | O=C(NC1CCOCC1)[C@H](Nc1ccc2c(c1)CNC2)c1cc(Cl)cc2[nH]ncc12 | 43.9 µM
40 | Cn1cc(CCc2nc3c(C(=O)Nc4ccc5c(c4)CNC5)cc(Cl)cc3[nH]2)cn1 | 26.4 µM
41 | Cc1cccc(-c2nc3c(C(=O)Nc4ccc5c(c4)CNC5)cc(F)cc3[nH]2)c1 | 5.9 µM
42 | O=C(Nc1ccc2c(c1)CNC2)c1ccc2[nH]ccc2c1 | > 99.5 µM
43 | C=CC[C@H]1NCc2cc(NC(=O)c3cc(F)cc4[nH]ncc34)ccc21 | > 99.5 µM
44 | O=C(Nc1cc(Cl)cc([C@H]2CN(Cc3ccccc3)C[C@@H]2c2cccc(-c3nn[nH]n3)c2)c1)OCc1ccccc1 | 6.83 µM
45 | COCCNC(=O)[C@H](Nc1ccc2c(c1)CNC2)c1cc(Cl)cc(C2CC2)c1 | > 99.5 µM
46 | O=C(Nc1ccc2c(c1)CNC2)c1cc(F)cc2c1CCC2 | > 99.5 µM
47 | CNC(=O)[C@H](Nc1cc(CN)cc(-c2nn[nH]n2)c1)c1cc(Cl)cc(C2CC2)c1 | > 99.5 µM
48 | CCc1cc(C(=O)Nc2cccc(-n3nn[nH]c3=O)c2)sc1-c1ccc(Cl)cc1 | 13.1 µM
49 | Cc1c(C(=O)Nc2cc(CCCN)ccn2)cc(C2CC2)n1C | 39.2 µM
50 | O=C(Nc1cc(Cl)cc(-c2ccc3[nH]c(C(=O)O)cc3c2)c1)OCc1ccccc1 | 6.92 µM

Row | SMILES | IC50
51 | O=C(Nc1ccc2c(c1)CNC2)c1cc(F)cc2[nH]c(-c3cccc(F)c3)nc12 | 3.73 µM
52 | O=C(Nc1ccc2c(c1)CNC2)c1cc(Cl)cc(C(F)(F)F)n1 | 23 µM
53 | Cc1cccc(-c2nc3c(C(=O)Nc4ccc5c(c4)CNC5)cc(Cl)cc3[nH]2)c1O | 3.54 µM
54 | O=C(Nc1ccc2c(c1)CNC2)c1cccc2cn[nH]c12 | 45 µM
55 | O=C(Nc1ccc2c(c1)CNC2)c1cccc2[nH]c(C(F)(F)F)cc12 | > 99.5 µM
56 | Cn1c(=O)[nH]c2c(C(=O)Nc3ccc4c(c3)CNC4)cc(Br)cc21 | > 99.5 µM
57 | N=C(N)NCCC[C@H](NC(=O)[C@H](Cc1ccc(CN)cc1)NC(=O)c1ccccc1)B(O)O | 0.793 µM and 0.503 µM
58 | N#C[C@H](Nc1ccc2c(c1)CNC2)c1cc(Cl)cc2[nH]ncc12 | > 99.5 µM
59 | N#Cc1cccc(-c2nc3c(C(=O)Nc4ccc5c(c4)CNC5)cc(F)cc3[nH]2)c1 | 2.86 µM
60 | O=C(NCC(F)F)[C@H](Nc1ccc2c(c1)CNC2)c1cc(Cl)cc(C2CC2)c1 | > 99.5 µM
61 | O=C(Nc1ccc2c(c1)CNC2)c1cc(Cl)cc2nn(-c3ccccc3)nc12 | 5.25 µM
62 | O=C1Cc2c(cc(F)cc2C(=O)Nc2ccc3c(c2)CNC3)N1 | 53.7 µM
63 | C=CC[C@H](Nc1cc(Cl)cc(NC(=O)OCc2ccccc2)c1)c1cccc(-c2nn[nH]n2)c1 | 7.78 µM
64 | Clc1cc([C@@H]2C[C@H]2c2cccc(C3CCNCC3)c2)c2cn[nH]c2c1 | 5.84 µM
65 | N=C(N)NCCC[C@H](NC(=O)c1nccs1)C(=O)N[C@@H](CCCCN)C(=O)N[C@@H](C(N)=O)c1ccc(OCc2ccc(C(F)(F)F)cc2)cc1 | 2.58 µM and 1.74 µM and 2.67 µM and 1.47 µM and 1.14 µM and 1.86 µM and 1.06 µM
66 | Cc1ccccc1-c1nc2c(C(=O)Nc3ccc4c(c3)CNC4)cc(F)cc2[nH]1 | 3.24 µM
67 | C=CC[C@H]1NCc2cc(NC(=O)c3cc(Cl)cc4[nH]ncc34)ccc21 | > 99.5 µM
68 | CNC(=O)[C@H](Nc1ccc2c(c1)CNC2)c1cc(Cl)cc(C2CC2)c1 | > 99.5 µM
69 | COc1cc(-c2cc(NC(=O)c3cc(F)cc4[nH]ncc34)cc3c2CNC3)ccn1 | 42.5 µM
70 | O=C(Nc1ccc2c(c1)CNC2)c1cccc2nc(O)ccc12 | > 99.5 µM
71 | CC(C)c1nnc(-c2nc3c(C(=O)Nc4ccc5c(c4)CNC5)cc(F)cc3[nH]2)s1 | 9.86 µM
72 | O=C(Nc1cc(Cl)cc(C(=O)Nc2ccc3c(c2)CCNC3)c1)OCc1ccccc1 | 32.1 µM
73 | COc1cccc(-c2nc3c(C(=O)Nc4ccc5c(c4)CNC5)cc(F)cc3[nH]2)c1 | 5.32 µM
74 | CC(C)(c1nc2c(C(=O)Nc3ccc4c(c3)CNC4)cc(F)cc2[nH]1)S(C)(=O)=O | 18 µM
75 | O=C(Nc1ccc2c(c1)CNC2)c1cc(Cl)cc2cn[nH]c12 | > 99.5 µM

Row | SMILES | IC50
76 | O=C(Nc1ccc2c(c1)CNC2)c1cc(F)cc2[nH]c(-c3ccccc3F)nc12 | 5.23 µM
77 | O=C1Cc2cc(C(=O)Nc3ccc4c(c3)CNC4)ccc2N1 | 14 µM and 8.21 µM
78 | CC(C)(C)c1cc(Br)cc(C(=O)Nc2ccc3c(c2)CNC3)c1 | > 99.5 µM
79 | O=C(Nc1ccc2c(c1)CNC2)c1cc(F)cc2[nH]ncc12 | > 99.5 µM
80 | O=C(Nc1ccc2c(c1)CNC2)c1cc(F)c2[nH]ccc2c1 | > 99.5 µM
81 | O=C(Nc1cc(Cl)cc(C(=O)Nc2ccc3c(c2)CNC3)c1)OCc1ccccc1 | 91.3 µM
82 | C=CC[C@H]1NCc2cc(NC(=O)c3cccc4c3CC(=O)N4)ccc21 | > 99.5 µM
83 | O=C(NCC(F)F)[C@H](Nc1ccc2c(c1)CNC2)c1cc(F)cc2[nH]ncc12 | > 99.5 µM
84 | O=C(Nc1ccc2c(c1)CNC2)c1cc(Br)cc2[nH]c(=O)[nH]c12 | 38.7 µM
85 | NCCc1csc2cc(C(=O)Nc3ccc4c(c3)CNC4)ccc12 | > 99.5 µM
86 | Cc1c(C(=O)Nc2cc(-c3cccnc3)ccn2)cc(C2CC2)n1C | 6.83 µM
87 | O=C(Nc1cc2c(c(C3=CCS(=O)(=O)CC3)c1)CNC2)c1cc(F)cc2[nH]ncc12 | 50 µM
88 | O=C(Nc1ccc2c(c1)CNC2)c1cccc2[nH]c(=O)[nH]c12 | 74.5 µM
89 | O=C(Nc1ccc2c(c1)CNC2)c1cc(Br)cc2ccccc12 | > 99.5 µM
90 | N[C@H]1CC[C@H](c2ccc(NC(=O)c3cc(Cl)cc(NC(=O)OCc4ccccc4)c3)cc2)C1 | 7.64 µM
91 | O=C(Nc1cc(Cl)cc(C(=O)Nc2cccc(-n3nn[nH]c3=O)c2)c1)OCc1ccccc1 | 13.9 µM
92 | O=C(NC1CCOCC1)[C@H](Nc1ccc2c(c1)CNC2)c1cc(Cl)cc(C2CC2)c1 | > 99.5 µM
93 | Clc1ccc2[nH]cc(Cc3ccc(-c4nn[nH]n4)cc3)c2c1 | 99.1 µM
94 | O=C1Cc2c(cc(Br)cc2C(=O)Nc2ccc3c(c2)CNC3)N1 | 87.9 µM
95 | CC(C)c1cc(Br)cc(C(=O)Nc2ccc3c(c2)CNC3)c1 | > 99.5 µM
96 | Clc1cc(CNc2ccc3c(c2)CNC3)c2cn[nH]c2c1 | 38.8 µM
97 | OCC#C[C@H](Nc1ccc2c(c1)CNC2)c1cc(Cl)cc2[nH]ncc12 | 22.3 µM
98 | CNC(=O)[C@H](Nc1cc(CN)cc(C(=O)O)c1)c1cc(Cl)cc(C2CC2)c1 | > 99.5 µM
99 | O=C(Nc1ccc2c(c1)CNC2)c1ccc2c(C3=CCNCC3)csc2c1 | 70 µM

— ChEMBL document CHEMBL5604066, “ASAP - DENV-4 NS2B-NS3 protease fluorescence dose response” (2024)
